In US10144706B2 (BRISTOL-MYERS SQUIBB COMPANY, priority 2016, dated 2018) one finds IC50 data, which are given here for 26 compounds.

In one experiment the target is T1, PD-1/PD-L1 interaction (PD-1-Ig / PD-L1-His) (Homo sapiens, UniProt Q9NZQ7).
T1 construct: hPDL1(18-239)-TVMV-His; TVMV protease site linker (C); made in house; host or cells: HEK293T
T1 sequence (Q9NZQ7 with tags, fused parts or gaps): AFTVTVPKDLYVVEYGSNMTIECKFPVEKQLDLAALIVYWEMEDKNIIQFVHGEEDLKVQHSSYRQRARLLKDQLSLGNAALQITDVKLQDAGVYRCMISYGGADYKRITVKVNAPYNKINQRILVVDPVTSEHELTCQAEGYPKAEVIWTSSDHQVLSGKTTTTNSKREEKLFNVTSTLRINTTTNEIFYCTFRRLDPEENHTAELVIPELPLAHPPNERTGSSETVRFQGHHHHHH
Nature of the experiment: PD-1/PD-L1 Homogenous Time-Resolved Fluorescence (HTRF) binding assay. The note with it: IC50 range class; PD-L1-His 10 nM, PD-1-Ig 20 nM; read-out: Range or IC50. The text has this:
The ability of the compounds of formula (I) to bind to PD-L1 was investigated using a PD-1/PD-L1 Homogenous Time-Resolved Fluorescence (HTRF) binding assay.
Homogenous Time-Resolved Fluorescence (HTRF) Binding Assay.
The interaction of PD-1 and PD-L1 can be assessed using soluble, purified preparations of the extracellular domains of the two proteins. The PD-1 and PD-L1 protein extracellular domains were expressed as fusion proteins with detection tags, for PD-1, the tag was the Fc portion of Immunoglobulin (PD-1-Ig) and for PD-L1 it was the 6 histidine motif (PD-L1-His). All binding studies were performed in an HTRF assay buffer consisting of dPBS supplemented with 0.1% […] bovine serum albumin and 0.05% (v/v) Tween-20. For the h/PD-L1-His binding assay, inhibitors were pre-incubated with PD-L1-His (10 nM final) for 15 m in 4 μl of assay buffer, followed by addition of PD-1-Ig (20 nM final) in 1 μl of assay buffer and further incubation for 15 m. HTRF detection was achieved using europium crypate-labeled anti-Ig (1 nM final) and allophycocyanin (APC) labeled anti-His (20 nM final). Antibodies were diluted in HTRF detection buffer and 5 μl was dispensed on top of the binding reaction. […] Additional binding assays were established between the human proteins PD-1-Ig/PD-L2-His (20 & 5 nM, respectively) and CD80-His/PD-L1-Ig (100 & 10 nM, respectively). […]
(In general: In TR-FRET formats the signal depends on donor and acceptor labels being close together.)
The IC50 is the concentration that inhibits the measured activity by half. `Cc1c(OCCCN2CCCC(CO)C2)cccc1-c1cccc(OCCCN2CC[C@@H](O)C2)c1C` (mixture of isomers) [Example 2003, (3R)-1-(3-((3′-(3-(3-(hydroxymethyl)piperidin-1-yl)propoxy)-2,2′-dimethyl-[1,1′-biphenyl]-3-yl)oxy)propyl)pyrrolidin-3-ol]: the IC50 was 20.1 to 90 nM.

With `Cc1c(OCCCN(C)CC(O)CO)cccc1-c1cccc(OCCCN2CC[C@@H](O)C2)c1C` (mixture of isomers) [Example 2015, 3-((3-((3′-(3-((R)-3-hydroxypyrrolidin-1-yl)propoxy)-2,2′-dimethyl-[1,1′-biphenyl]-3-yl)oxy)propyl)(methyl)amino)propane-1,2-diol], the IC50 lay in the range of 20.1 to 90 nM. For `CCN(CC)C(=O)C1CCCN(CCCOc2cccc(-c3cccc(OCCCN4CC[C@@H](O)C4)c3C)c2C)C1` (mixture of isomers) [Example 2023, N,N-diethyl-1-(3-((3′-(3-((R)-3-hydroxypyrrolidin-1-yl)propoxy)-2,2′-dimethyl-[1,1′-biphenyl]-3-yl)oxy)propyl)piperidine-3-carboxamide], the IC50 was 20.1 to 90 nM. As to `Cc1c(OCCCN2CC[C@@H](O)C2)cccc1-c1cccc(OCCCN2CCCCC2CO)c1C` (mixture of isomers) [Example 2025, (3R)-1-(3-((3′-(3-(2-(hydroxymethyl)piperidin-1-yl)propoxy)-2,2′-dimethyl-[1,1′-biphenyl]-3-yl)oxy)propyl)pyrrolidin-3-ol], the IC50 was 20.1 to 90 nM.

With `Cc1c(OCCCN2CCCC(CO)C2)cccc1-c1cccc(OCCCN2CCCC(CO)C2)c1C` (mixture of isomers) [Example 2026, ((((2,2′-dimethyl-[1,1′-biphenyl]-3,3′-diyl)bis(oxy))bis(propane-3,1-diyl))bis(piperidine-1,3-diyl))dimethanol], the IC50 lay in the range of 0.04 to 20 nM.

`Cc1c(OCCCNCC(O)C(C)(C)O)cccc1-c1cccc(OCCCNCC(O)C(C)(C)O)c1C` (mixture of isomers) [Example 2029, 4,4′-((((2,2′-dimethyl-[1,1′-biphenyl]-3,3′-diyl)bis(oxy))bis(propane-3,1-diyl))bis(azanediyl))bis(2-methylbutane-2,3-diol)]: the IC50 was 0.04 to 20 nM. In the case of `Cc1c(OCCCNCC(O)c2cccnc2)cccc1-c1cccc(OCCCN2CC[C@@H](O)C2)c1C` (mixture of isomers) [Example 2040, (3R)-1-(3-((3′-(3-((2-hydroxy-2-(pyridin-3-yl)ethyl)amino)propoxy)-2,2′-dimethyl-[1,1′-biphenyl]-3-yl)oxy)propyl)pyrrolidin-3-ol], the IC50 was 20.1 to 90 nM. As for `Cc1c(OCCCNCC(O)CO)cccc1-c1cccc(OCCCN2CC[C@@H](O)C2)c1C` (mixture of isomers) [Example 2059, 3-((3-((3′-(3-((R)-3-hydroxypyrrolidin-1-yl)propoxy)-2,2′-dimethyl-[1,1′-biphenyl]-3-yl)oxy)propyl)amino)propane-1,2-diol], the IC50 was 0.04 to 20 nM. Turning to `Cc1c(OCCCN(C)CC(O)CO)cccc1-c1cccc(OCCCN(C)CC(O)CO)c1C` (mixture of isomers) [Example 2078, 3,3′-((((2,2′-dimethyl-[1,1′-biphenyl]-3,3′-diyl)bis(oxy))bis(propane-3,1-diyl))bis(methylazanediyl))bis(propane-1,2-diol)], the IC50 lay in the range of 0.04 to 20 nM. As to `Cc1c(OCCCNCC(O)CO)cccc1-c1cccc(OCCCNCC(O)CO)c1C` (mixture of isomers) [Example 2083, 3,3′-((((2,2′-dimethyl-[1,1′-biphenyl]-3,3′-diyl)bis(oxy))bis(propane-3,1-diyl))bis(azanediyl))bis(propane-1,2-diol)], the IC50 lay within 0.04 to 20 nM. Turning to `Cc1c(OCCCNCC(C)(O)CO)cccc1-c1cccc(OCCCNCC(C)(O)CO)c1C` (mixture of isomers) [Example 2104, 3,3′-((((2,2′-dimethyl-[1,1′-biphenyl]-3,3′-diyl)bis(oxy))bis(propane-3,1-diyl))bis(azanediyl))bis(2-methylpropane-1,2-diol)], the IC50 fell in the range of 0.04 to 20 nM. As for `Cc1c(OCCCN2CC[C@@H](O)C2)cccc1-c1ccc2c(c1)OC(CCN1CC[C@@H](O)C1)CO2` (single isomer, unassigned) [Example 3030], the IC50 was 0.04 to 20 nM. Turning to `Cc1c(OCCCN2CC[C@@H](O)C2)cccc1-c1ccc2c(c1)OC(CCN1CC[C@@H](O)C1)CO2` (single isomer, unassigned) [Example 3031], the IC50 lay within 0.04 to 20 nM. The same measure, in the same setting: under `Cc1c(OCCCN2CC[C@@H](O)C2)cccc1-c1cccc(OCCCN2CC(O)C[C@H]2C(=O)O)c1C` (stereo in doubt) [Example 2051, (2S,4R)-4-hydroxy-1-(3-((3′-(3-((R)-3-hydroxypyrrolidin-1-yl)propoxy)-2,2′-dimethyl-[1,1′-biphenyl]-3-yl)oxy)propyl)pyrrolidine-2-carboxylic acid] stands 1000 to 10000 nM; under `Cc1c(OCCCN2CCC(O)(CC(=O)O)C2)cccc1-c1cccc(OCCCN2CCC(O)(CC(=O)O)C2)c1Cl` (centres unmarked) [Example 1001, 2,2′-((((2-chloro-2′-methyl-[1,1′-biphenyl]-3,3′-diyl)bis(oxy))bis(propane-3,1-diyl))bis(3-hydroxypyrrolidine-1,3-diyl))diacetic acid], 20.1 to 90 nM.

With `Cc1c(OCCCN2CCC(O)(C(=O)O)CC2)cccc1-c1cccc(OCCCN2CCC(O)(C(=O)O)CC2)c1Cl` [Example 1002, 1,1′-(((2-chloro-2′-methyl-[1,1′-biphenyl]-3,3′-diyl)bis(oxy))bis(propane-3,1-diyl))bis(4-hydroxypiperidine-4-carboxylic acid)], the IC50 is 0.04 to 20 nM. Regarding `Cc1c(OCCCN2C[C@H](O)C[C@H]2C(=O)O)cccc1-c1cccc(OCCCN2C[C@H](O)C[C@H]2C(=O)O)c1Cl` [Example 1003, (2S,2′S,4R,4′R)-1,1′-(((2-chloro-2′-methyl-[1,1′-biphenyl]-3,3′-diyl)bis(oxy))bis(propane-3,1-diyl))bis(4-hydroxypyrrolidine-2-carboxylic acid)], the IC50 is greater than 10000 nM. In the case of `Cc1ccc(OCCCN2CC[C@@H](O)C2)cc1-c1cccc(OCCCN2CC[C@@H](O)C2)c1C` [Example 1004, (3R,3′R)-1,1′-(((2,6′-dimethyl-[1,1′-biphenyl]-3,3′-diyl)bis(oxy))bis(propane-3,1-diyl))bis(pyrrolidin-3-ol)], the IC50 was in the range of 1000 to 10000 nM. Turning to `CC(=O)N1CCN(CCCOc2cccc(-c3cccc(OCCCN4CC[C@@H](O)C4)c3C)c2C)CC1` [Example 2001, (R)-1-(4-(3-((3′-(3-(3-hydroxypyrrolidin-1-yl)propoxy)-2,2′-dimethyl-[1,1′-biphenyl]-3-yl)oxy)propyl)piperazin-1-yl)ethan-1-one], the IC50 fell in the range of 20.1 to 90 nM. Same read-out and setting: as for `COc1cc2c(cc1OC)CN(CCCOc1cccc(-c3cccc(OCCCN4CC[C@@H](O)C4)c3C)c1C)CC2` [Example 2004, (R)-1-(3-((3′-(3-(6,7-dimethoxy-3,4-dihydroisoquinolin-2(1H)-yl)propoxy)-2,2′-dimethyl-[1,1′-biphenyl]-3-yl)oxy)propyl)pyrrolidin-3-ol], the figure is 20.1 to 90 nM. `Cc1c(OCCCNCCN2CCOCC2)cccc1-c1cccc(OCCCN2CC[C@@H](O)C2)c1C` [Example 2005, (R)-1-(3-((2,2′-dimethyl-3′-(3-((2-morpholinoethyl)amino)propoxy)-[1,1′-biphenyl]-3-yl)oxy)propyl)pyrrolidin-3-ol]: the IC50 fell in the range of 20.1 to 90 nM.

Regarding `Cc1c(OCCCNCc2ccncc2)cccc1-c1cccc(OCCCN2CC[C@@H](O)C2)c1C` [Example 2006, (R)-1-(3-((2,2′-dimethyl-3′-(3-((pyridin-4-ylmethyl)amino)propoxy)-[1,1′-biphenyl]-3-yl)oxy)propyl)pyrrolidin-3-ol], the IC50 lay in the range of 90.1 to 1000 nM.

In the case of `Cc1c(OCCCNCCN(C)C)cccc1-c1cccc(OCCCN2CC[C@@H](O)C2)c1C` [Example 2007, (R)-1-(3-((3′-(3-((2-(dimethylamino)ethyl)amino)propoxy)-2,2′-dimethyl-[1,1′-biphenyl]-3-yl)oxy)propyl)pyrrolidin-3-ol], the IC50 is 90.1 to 1000 nM. Consider `Cc1c(OCCCNCCn2cccn2)cccc1-c1cccc(OCCCN2CC[C@@H](O)C2)c1C` [Example 2008, (R)-1-(3-((3′-(3-((2-(1H-pyrazol-1-yl)ethyl)amino)propoxy)-2,2′-dimethyl-[1,1′-biphenyl]-3-yl)oxy)propyl)pyrrolidin-3-ol], for which the IC50 is 90.1 to 1000 nM. On to `Cc1ccn(CCNCCCOc2cccc(-c3cccc(OCCCN4CC[C@@H](O)C4)c3C)c2C)n1` [Example 2009, (R)-1-(3-((2,2′-dimethyl-3′-(3-((2-(3-methyl-1H-pyrazol-1-yl)ethyl)amino)propoxy)-[1,1′-biphenyl]-3-yl)oxy)propyl)pyrrolidin-3-ol], for which the half-inhibitory concentration (IC50) lay within 20.1 to 90 nM.

The same experiment, now with this note: numeric IC50; PD-L1-His 10 nM, PD-1-Ig 20 nM; read-out: Range or IC50.
With `Cc1c(OCCCN2CC(N(C)C)C2)cccc1-c1cccc(OCCCN2CC[C@@H](O)C2)c1C` [Example 2002, (R)-1-(3-((3′-(3-(3-(dimethylamino)azetidin-1-yl)propoxy)-2,2′-dimethyl-[1,1′-biphenyl]-3-yl)oxy)propyl)pyrrolidin-3-ol], the IC50 was found to be 99 nM.
